Test results: patent publication US20240025908A1, “COMPOUND USED AS KINASE INHIBITOR AND USE THEREOF” (TYK MEDICINES, INC., priority 2020, published 2024)

Experiments:
[1] = target: TRKA (Homo sapiens (Human), UniProt P04629); assay: Radio-tagged HotSpot kinase assay, TRKA; assay type: biochemical
Protocol: (§1) Inhibition of protein kinase activity by compounds was carried out on the Radio-tagged HotSpot kinase experimental platform of Reaction Biology Corporation. Fresh reaction solution (20 mM TIEPESpH 7.5, 10 mM MgCl2, 1 mM EGTA, 0.02% Brij35, 0.02 mg/ml BSA, 0.1 mM Na3VO4, 2 mM DTT, […]) containing corresponding substrates was prepared, cofactor and kinase to be tested were added into the above solution and mixed gently. Echo550 pipetting system was used to add the test compound DMSO solution to each well (the blank control group was added with the corresponding volume of DMSO), then 33P-ATP (with a final specific activity of 0.01 μCi/μL) was added to start the reaction. The reaction solution was incubated at room temperature for 120 minutes. Transferred the incubated reaction solution to P81 ion exchange chromatographic paper (Whatman #3698-915), eluted with […] phosphoric acid solution, and the amount of radioactive phosphorylated substrate remaining on the chromatographic paper was detected.

[2] = target: ROS1 (Homo sapiens (Human), UniProt P08922); assay: Radio-tagged HotSpot kinase assay, ROS1; assay type: biochemical
Sequence of ROS1 (P08922 28-2347): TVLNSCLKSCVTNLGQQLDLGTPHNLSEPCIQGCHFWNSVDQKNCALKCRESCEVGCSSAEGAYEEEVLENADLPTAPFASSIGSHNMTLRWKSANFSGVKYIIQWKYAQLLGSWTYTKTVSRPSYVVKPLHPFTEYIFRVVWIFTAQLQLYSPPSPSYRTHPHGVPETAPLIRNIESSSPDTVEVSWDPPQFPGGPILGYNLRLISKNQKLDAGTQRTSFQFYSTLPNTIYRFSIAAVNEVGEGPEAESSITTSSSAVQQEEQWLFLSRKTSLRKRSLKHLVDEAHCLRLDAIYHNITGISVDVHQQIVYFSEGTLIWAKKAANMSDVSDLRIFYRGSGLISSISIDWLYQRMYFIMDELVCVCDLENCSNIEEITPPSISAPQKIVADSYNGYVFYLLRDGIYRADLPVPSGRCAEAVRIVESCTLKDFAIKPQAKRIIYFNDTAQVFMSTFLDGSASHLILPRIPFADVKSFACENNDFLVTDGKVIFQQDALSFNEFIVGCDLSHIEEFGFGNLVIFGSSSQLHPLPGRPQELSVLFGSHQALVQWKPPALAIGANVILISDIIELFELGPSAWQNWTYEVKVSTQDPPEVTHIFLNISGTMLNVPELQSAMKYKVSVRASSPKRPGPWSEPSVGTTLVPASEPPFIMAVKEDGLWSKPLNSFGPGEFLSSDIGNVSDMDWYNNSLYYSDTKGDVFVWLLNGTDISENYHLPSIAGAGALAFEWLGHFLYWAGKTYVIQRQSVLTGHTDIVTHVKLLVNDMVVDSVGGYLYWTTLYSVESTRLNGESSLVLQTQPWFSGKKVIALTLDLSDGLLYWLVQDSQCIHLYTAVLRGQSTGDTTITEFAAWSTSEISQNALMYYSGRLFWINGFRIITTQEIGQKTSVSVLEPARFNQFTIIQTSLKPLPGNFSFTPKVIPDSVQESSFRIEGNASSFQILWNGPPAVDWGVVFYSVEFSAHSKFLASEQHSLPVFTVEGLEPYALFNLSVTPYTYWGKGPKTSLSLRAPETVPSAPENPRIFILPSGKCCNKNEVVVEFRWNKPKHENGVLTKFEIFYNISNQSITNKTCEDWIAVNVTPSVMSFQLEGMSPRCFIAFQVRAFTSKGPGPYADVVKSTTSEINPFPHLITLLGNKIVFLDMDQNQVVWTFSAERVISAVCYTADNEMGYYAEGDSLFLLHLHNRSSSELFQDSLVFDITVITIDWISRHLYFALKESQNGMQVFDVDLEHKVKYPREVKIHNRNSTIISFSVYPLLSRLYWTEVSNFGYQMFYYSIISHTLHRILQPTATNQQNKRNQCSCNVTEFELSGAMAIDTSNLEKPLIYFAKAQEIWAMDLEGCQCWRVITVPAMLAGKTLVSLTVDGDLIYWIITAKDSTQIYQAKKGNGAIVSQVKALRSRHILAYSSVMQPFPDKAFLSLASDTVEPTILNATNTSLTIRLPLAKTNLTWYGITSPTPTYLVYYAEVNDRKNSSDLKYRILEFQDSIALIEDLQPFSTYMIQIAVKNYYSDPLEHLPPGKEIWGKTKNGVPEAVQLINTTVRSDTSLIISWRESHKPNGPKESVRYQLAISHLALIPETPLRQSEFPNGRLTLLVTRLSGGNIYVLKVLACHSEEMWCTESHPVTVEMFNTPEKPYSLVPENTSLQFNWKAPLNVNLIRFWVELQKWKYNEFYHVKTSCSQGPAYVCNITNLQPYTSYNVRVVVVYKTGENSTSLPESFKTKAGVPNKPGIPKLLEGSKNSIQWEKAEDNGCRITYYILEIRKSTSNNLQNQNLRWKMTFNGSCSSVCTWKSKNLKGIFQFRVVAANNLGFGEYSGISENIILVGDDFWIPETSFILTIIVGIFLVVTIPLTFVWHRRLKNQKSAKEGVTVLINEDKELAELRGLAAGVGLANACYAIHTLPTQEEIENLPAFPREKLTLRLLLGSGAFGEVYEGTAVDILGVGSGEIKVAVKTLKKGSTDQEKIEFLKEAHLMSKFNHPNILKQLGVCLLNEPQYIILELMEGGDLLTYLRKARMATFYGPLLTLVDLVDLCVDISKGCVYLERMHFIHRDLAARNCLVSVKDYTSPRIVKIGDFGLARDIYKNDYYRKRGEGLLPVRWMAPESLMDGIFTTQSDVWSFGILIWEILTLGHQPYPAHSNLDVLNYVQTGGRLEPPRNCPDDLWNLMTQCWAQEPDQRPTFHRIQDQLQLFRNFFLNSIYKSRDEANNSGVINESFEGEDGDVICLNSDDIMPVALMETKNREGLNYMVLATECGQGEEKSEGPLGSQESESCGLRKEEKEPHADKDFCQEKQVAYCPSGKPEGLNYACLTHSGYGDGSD
Protocol: as §1

[3] = target: ALK (Homo sapiens (Human), UniProt Q9UM73); assay: Radio-tagged HotSpot kinase assay, ALK; assay type: biochemical
Sequence of ALK (Q9UM73 19-1620): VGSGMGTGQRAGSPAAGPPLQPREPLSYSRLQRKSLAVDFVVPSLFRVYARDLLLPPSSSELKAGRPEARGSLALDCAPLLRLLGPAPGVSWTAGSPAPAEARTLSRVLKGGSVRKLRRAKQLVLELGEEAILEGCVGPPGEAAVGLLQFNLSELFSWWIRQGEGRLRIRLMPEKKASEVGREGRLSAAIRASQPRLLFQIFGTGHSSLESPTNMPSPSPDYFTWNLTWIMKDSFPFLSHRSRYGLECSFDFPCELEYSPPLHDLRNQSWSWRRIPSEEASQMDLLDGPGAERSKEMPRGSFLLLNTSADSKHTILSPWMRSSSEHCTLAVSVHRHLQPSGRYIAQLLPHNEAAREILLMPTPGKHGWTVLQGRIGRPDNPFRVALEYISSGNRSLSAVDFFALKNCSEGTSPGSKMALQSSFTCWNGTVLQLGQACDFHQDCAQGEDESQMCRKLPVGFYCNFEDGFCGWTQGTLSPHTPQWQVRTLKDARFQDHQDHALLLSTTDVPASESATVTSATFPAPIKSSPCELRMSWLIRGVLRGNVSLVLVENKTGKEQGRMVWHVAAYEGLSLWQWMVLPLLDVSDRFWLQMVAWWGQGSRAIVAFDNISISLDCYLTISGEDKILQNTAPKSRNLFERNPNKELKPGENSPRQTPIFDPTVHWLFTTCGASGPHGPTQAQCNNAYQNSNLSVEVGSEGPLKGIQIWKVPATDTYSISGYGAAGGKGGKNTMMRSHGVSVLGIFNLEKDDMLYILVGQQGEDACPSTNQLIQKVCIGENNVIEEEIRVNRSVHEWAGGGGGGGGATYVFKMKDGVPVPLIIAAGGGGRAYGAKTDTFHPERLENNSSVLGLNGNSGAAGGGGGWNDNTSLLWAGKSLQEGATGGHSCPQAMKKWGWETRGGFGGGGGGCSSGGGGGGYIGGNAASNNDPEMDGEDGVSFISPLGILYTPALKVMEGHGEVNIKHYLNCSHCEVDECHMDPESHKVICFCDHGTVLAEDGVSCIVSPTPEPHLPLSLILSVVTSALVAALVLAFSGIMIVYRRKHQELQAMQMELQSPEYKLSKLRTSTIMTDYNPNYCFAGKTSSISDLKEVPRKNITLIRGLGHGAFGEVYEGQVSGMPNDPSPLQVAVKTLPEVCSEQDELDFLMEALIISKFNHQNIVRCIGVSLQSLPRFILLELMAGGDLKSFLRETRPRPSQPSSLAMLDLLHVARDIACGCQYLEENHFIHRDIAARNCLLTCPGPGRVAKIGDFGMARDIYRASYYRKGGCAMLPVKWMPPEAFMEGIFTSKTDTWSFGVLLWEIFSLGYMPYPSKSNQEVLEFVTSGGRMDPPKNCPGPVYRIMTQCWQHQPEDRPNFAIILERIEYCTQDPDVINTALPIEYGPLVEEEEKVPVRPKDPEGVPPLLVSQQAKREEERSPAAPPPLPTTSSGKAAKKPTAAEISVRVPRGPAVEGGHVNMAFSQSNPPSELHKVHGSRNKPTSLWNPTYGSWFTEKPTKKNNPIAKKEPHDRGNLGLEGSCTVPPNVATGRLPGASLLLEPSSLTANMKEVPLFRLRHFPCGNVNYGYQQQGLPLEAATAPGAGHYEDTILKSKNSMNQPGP
Protocol: as §1

[4] = target: ALK (G1202R) (Homo sapiens (Human), UniProt Q9UM73, G1202R); assay: Radio-tagged HotSpot kinase assay, ALK (G1202R); assay type: biochemical
Sequence of ALK (G1202R) (Q9UM73 19-1620 G1202R): as the sequence (Q9UM73 19-1620) above, with G1184R counted along it
Protocol: as §1

[5] = target: ROS1 (G2032R) (Homo sapiens (Human), UniProt P08922, G2032R); assay: Radio-tagged HotSpot kinase assay, ROS1 (G2032R); assay type: biochemical
Sequence of ROS1 (G2032R) (P08922 28-2347 G2032R): as the sequence (P08922 28-2347) above, with G2005R counted along it
Protocol: as §1

[6] = target: TRKA (G677C) (Homo sapiens, UniProt P04629, G667C); assay: Radio-tagged HotSpot kinase assay, TRKA (G677C); assay type: biochemical; conditions: read-out: TRKA (G677C) (IC50/nM)
Sequence of TRKA (G677C) (P04629 33-796 G667C limits assumed): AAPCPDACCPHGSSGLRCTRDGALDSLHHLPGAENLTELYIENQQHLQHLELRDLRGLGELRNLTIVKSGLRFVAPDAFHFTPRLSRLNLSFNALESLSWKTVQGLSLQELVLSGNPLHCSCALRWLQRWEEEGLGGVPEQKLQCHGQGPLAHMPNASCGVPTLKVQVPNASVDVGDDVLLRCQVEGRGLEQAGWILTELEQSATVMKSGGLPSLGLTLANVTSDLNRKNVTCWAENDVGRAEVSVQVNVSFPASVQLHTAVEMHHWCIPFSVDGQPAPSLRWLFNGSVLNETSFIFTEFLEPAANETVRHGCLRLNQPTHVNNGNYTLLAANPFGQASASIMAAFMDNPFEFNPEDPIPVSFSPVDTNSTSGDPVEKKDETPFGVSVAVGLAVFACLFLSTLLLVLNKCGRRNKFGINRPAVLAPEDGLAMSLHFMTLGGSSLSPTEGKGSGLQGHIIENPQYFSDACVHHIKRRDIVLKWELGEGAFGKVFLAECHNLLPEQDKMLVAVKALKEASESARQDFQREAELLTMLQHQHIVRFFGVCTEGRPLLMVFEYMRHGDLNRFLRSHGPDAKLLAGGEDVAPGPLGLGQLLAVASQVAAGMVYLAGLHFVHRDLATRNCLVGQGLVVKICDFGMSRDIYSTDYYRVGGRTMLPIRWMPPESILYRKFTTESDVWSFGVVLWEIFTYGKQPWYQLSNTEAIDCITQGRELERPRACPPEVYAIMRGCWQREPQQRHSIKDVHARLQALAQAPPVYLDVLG
Protocol: as §1

[7] = test system: Ba/F3-CD74-ROS1-G2032R; assay: Inhibition of cell proliferation (CellTiter-Glo), Ba/F3-CD74-ROS1-G2032R; assay type: cell-based; conditions: 72 hours
Protocol: (§2) The experiment of inhibiting cell proliferation by compounds was carried out in Hefei Zhongkeprecedo Biomedical Technology Co., Ltd. The Ba/F3 engineered cell line stably transfected with different kinase genes was recovered with RPMI 1640 medium (Biological Industries, Israel)+10% fetal bovine serum (Biological Industries, Israel)+1% double antibody (Penicillin Streptomycin solution, Coring, USA) and cultivated two generations. The logarithmic growth phase cell suspension was taken, and 2000 cells/well were inoculated on 96-well white cell culture plate (Corning 3917, NY, USA) with a volume of 95 μL per well. 5 μL of 20×DMSO solution of the compound to be tested was added into the culture plate containing 95 μL of cell suspension. The blank control group was added with corresponding volume of DMSO, mixed well, and incubated in a 5% CO2 incubator at 37° C. for 72 hours. CellTiter-Glo was used to detect cell viability.

[8] = test system: Ba/F3-LMNA-NTRK1-G595R; assay: Inhibition of cell proliferation (CellTiter-Glo), Ba/F3-LMNA-NTRK1-G595R; assay type: cell-based; conditions: 72 hours
Protocol: as §2

Sequence of TRKA (P04629 33-796): as the sequence (P04629 33-796 G667C limits assumed) above, with C635G counted along it

COc1ncc(F)cc1[C@@H](C)Nc1ccn2ncc(C3=NC(=O)C(C)(C)N3)c2n1 [Example 10]
IC50 [1]: < 0.5 nM
IC50 [2]: < 0.5 nM
IC50 [3]: 0.5 to 5 nM
IC50 [4]: 5 to 50 nM
IC50 [5]: < 0.5 nM
IC50 [6]: < 0.5 nM

C[C@@H](Nc1ccn2ncc(C3=NC(=O)C(C)(C)N3)c2n1)c1cc(F)cnc1OC(F)(F)F [Example 25]
IC50 [1]: < 0.5 nM
IC50 [2]: < 0.5 nM
IC50 [3]: 0.5 to 5 nM
IC50 [4]: 5 to 50 nM
IC50 [5]: 0.5 to 5 nM
IC50 [6]: 0.5 to 5 nM

C[C@@H](Nc1ccn2ncc(C3=NOCCN3)c2n1)c1cc(F)ccc1C(F)(F)F [Example 27]
IC50 [1]: 0.5 to 5 nM
IC50 [2]: 0.5 to 5 nM
IC50 [3]: 5 to 50 nM
IC50 [4]: 50 to 500 nM
IC50 [5]: 50 to 500 nM
IC50 [6]: 50 to 500 nM

C[C@@H](Nc1ccn2ncc(NC3=NCC(C)(C)N3)c2n1)c1cc(F)cc(F)c1F [Example 17]
IC50 [1]: 0.5 to 5 nM
IC50 [2]: 0.5 to 5 nM
IC50 [3]: 50 to 500 nM
IC50 [4]: 50 to 500 nM
IC50 [5]: 5 to 50 nM
IC50 [6]: 5 to 50 nM

C[C@@H](Nc1ccn2ncc(C(=O)NOCCO)c2n1)c1cc(F)cc(F)c1F [Example 13]
IC50 [1]: 5 to 50 nM
IC50 [2]: 5 to 50 nM
IC50 [3]: 50 to 500 nM
IC50 [4]: 50 to 500 nM
IC50 [5]: 50 to 500 nM
IC50 [6]: 50 to 500 nM

C[C@@H](Nc1ccn2ncc(OC3=NCC(C)(C)N3)c2n1)c1cc(F)cc(F)c1F [Example 15]
IC50 [1]: 0.5 to 5 nM
IC50 [2]: 0.5 to 5 nM
IC50 [3]: 50 to 500 nM
IC50 [4]: 50 to 500 nM
IC50 [5]: 5 to 50 nM
IC50 [6]: 5 to 50 nM

COc1ccc(F)cc1[C@@H](C)Nc1ccn2ncc(C3=NC(=O)C(C)(C)N3)c2n1 [Example 7]
IC50 [1]: < 0.5 nM
IC50 [7]: 54.6 nM
IC50 [8]: 36.1 nM
IC50 [2]: < 0.5 nM
IC50 [3]: 0.5 to 5 nM
IC50 [4]: 5 to 50 nM
IC50 [5]: < 0.5 nM
IC50 [6]: < 0.5 nM

C[C@@H](Nc1ccn2ncc(C3=NN=CC(C)(C)N3)c2n1)c1cc(F)cc(F)c1F [Example 5]
IC50 [1]: 0.5 to 5 nM
IC50 [2]: 0.5 to 5 nM
IC50 [3]: 5 to 50 nM
IC50 [4]: 5 to 50 nM
IC50 [5]: 5 to 50 nM
IC50 [6]: 5 to 50 nM

CONC(=O)c1cnn2ccc(N[C@H](C)c3cc(F)cc(F)c3F)nc12 [Example 24]
IC50 [1]: 5 to 50 nM
IC50 [2]: 5 to 50 nM
IC50 [3]: 5 to 50 nM
IC50 [4]: 50 to 500 nM
IC50 [5]: 50 to 500 nM
IC50 [6]: 50 to 500 nM

C[C@@H](Nc1ccn2ncc(C3=NC(=O)C(C)(C)N3)c2n1)c1cc(F)ccc1OC(F)(F)F [Example 21]
IC50 [1]: < 0.5 nM
IC50 [2]: < 0.5 nM
IC50 [3]: 0.5 to 5 nM
IC50 [4]: 5 to 50 nM
IC50 [5]: 0.5 to 5 nM
IC50 [6]: 0.5 to 5 nM

CCCOC(=O)/N=C(\N)c1cnn2ccc(N[C@H](C)c3cc(F)cc(F)c3F)nc12 [Example 11]
IC50 [1]: 0.5 to 5 nM
IC50 [2]: 0.5 to 5 nM
IC50 [3]: 50 to 500 nM
IC50 [4]: 50 to 500 nM
IC50 [5]: 5 to 50 nM
IC50 [6]: 5 to 50 nM

C[C@@H](Nc1ccn2ncc(C3=NOCCN3)c2n1)c1cc(F)cc(C(F)(F)F)c1F [Example 19]
IC50 [1]: 0.5 to 5 nM
IC50 [2]: 0.5 to 5 nM
IC50 [3]: 5 to 50 nM
IC50 [4]: 50 to 500 nM
IC50 [5]: 5 to 50 nM
IC50 [6]: 5 to 50 nM

C[C@@H](Nc1ccn2ncc(C3=NC(=O)C(C)(C)N3)c2n1)c1cc(F)cnc1OCC(F)(F)F [Example 23]
IC50 [1]: < 0.5 nM
IC50 [2]: < 0.5 nM
IC50 [3]: 5 to 50 nM
IC50 [4]: 50 to 500 nM
IC50 [5]: 0.5 to 5 nM
IC50 [6]: 0.5 to 5 nM

COc1ccc(F)cc1[C@@H](C)Nc1ccn2ncc(NC3=NC(C)(C)CO3)c2n1 [Example 1]
IC50 [1]: 0.5 to 5 nM
IC50 [2]: 0.5 to 5 nM
IC50 [3]: 0.5 to 5 nM
IC50 [4]: 5 to 50 nM
IC50 [5]: 0.5 to 5 nM
IC50 [6]: 0.5 to 5 nM
